Test results taken from patent US20240158370A1, “CK1 alpha AND DUAL CK1 alpha / GSPT1 DEGRADING COMPOUNDS” (Innovo Therapeutics, Inc., priority 2022, published 2024).

Legend:
CK1α = molecular target: T1, CK1α (Homo sapiens, UniProt P48729+Q96SW2); experiment: HiBiT degradation assay, CK1α, Procedure A; format: cell-based
T1 construct: CSNK1A1-HiBit KI HEK293(LgBit) Cells; host or cells: HEK293(LgBit) knock-in cells
Method: (§1) Compounds were spotted onto Cornin 384-Well, Cell Culture-Treated, Flat-Bottom, Low Flange Microplate (Fisher Scientific, Catalog #07-201-013) using a Tecan D300e digital dispenser. Ten-point dose response curves spanning from 10 μM to 0.005 μM with a 0.1% DMSO tolerance were used.
(§2) Cells were dissociated from tissue 182 cm^2 Tissue Culture Flask (CellTreat Catalog #229351) by washing the cells with PBS (Fisher Scientific Catalog #BP3994) followed by dissociation with Trypsin-EDTA (0.25%) (Thermo Scientific Catalog #25200056). Trysin was neutralized and cells were resuspended with DMEM+10% FBS. Cells were centrifuged for 5 minutes at 1200 RPMs. Cell culture media was aspirated off and cells were resuspended with DMEM+10% FBS. Cell density was determined using a Denovix CellDrop BF cell counter. Cell density was adjusted to 1×10^6 cells/ml. 40 μl of cells was added to compound treated tissue culture plates and incubated for six hours at 37° C. After six hours, cell culture plates were removed from tissue culture incubator and cooled to room temperature. 40 μl of Nano-GloHiBiT Lytic Detection Reagent (Promega, Catalog #N3040) was added to each well. Plates were placed on an orbital shaker (600 rpm) for 20 minutes. Luminescence was measured using an Envsion plate reader (Perkin Elmer). DC50 curves and Ymin were generated using a 4-parameter curve fit with GraphPad Prism software (Prism Corporation).
(§3) Results from the HiBiT assay (DC50 (nM) and Ymin (% remaining)) are shown below. All CK1α data was generated according to Procedure A. GSPT1 data for Examples 1-600, 603-620 and 703-705 was generated according to Procedure A. GSPT1 data for Examples 601, 621-702 and 706-735 was generated according to Procedure B.

GSPT1 = GSPT1 (Homo sapiens, UniProt P15170+Q96SW2); experiment: HiBiT degradation assay, GSPT1, Procedure A; format: cell-based; design: HiBit-GSPT1 KI HEK293(LgBit) Cells; host or cells: HEK293(LgBit) knock-in cells; settings: six hours incubation
Method: as §1, §2, §3

Sequence of GSPT1 (P15170 whole entry): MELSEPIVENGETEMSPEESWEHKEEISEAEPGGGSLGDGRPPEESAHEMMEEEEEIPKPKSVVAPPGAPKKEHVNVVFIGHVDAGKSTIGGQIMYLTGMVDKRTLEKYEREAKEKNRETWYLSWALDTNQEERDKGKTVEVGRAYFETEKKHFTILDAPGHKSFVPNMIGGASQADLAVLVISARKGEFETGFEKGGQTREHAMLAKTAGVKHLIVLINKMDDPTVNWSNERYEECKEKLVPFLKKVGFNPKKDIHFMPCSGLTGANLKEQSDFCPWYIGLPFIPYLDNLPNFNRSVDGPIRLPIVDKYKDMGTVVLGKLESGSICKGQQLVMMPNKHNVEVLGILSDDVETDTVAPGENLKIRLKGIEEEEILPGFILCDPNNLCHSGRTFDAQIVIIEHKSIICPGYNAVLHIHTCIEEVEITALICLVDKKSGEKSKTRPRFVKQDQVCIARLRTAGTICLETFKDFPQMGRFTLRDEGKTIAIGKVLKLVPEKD
Sequence of GSPT1 (Q96SW2 whole entry): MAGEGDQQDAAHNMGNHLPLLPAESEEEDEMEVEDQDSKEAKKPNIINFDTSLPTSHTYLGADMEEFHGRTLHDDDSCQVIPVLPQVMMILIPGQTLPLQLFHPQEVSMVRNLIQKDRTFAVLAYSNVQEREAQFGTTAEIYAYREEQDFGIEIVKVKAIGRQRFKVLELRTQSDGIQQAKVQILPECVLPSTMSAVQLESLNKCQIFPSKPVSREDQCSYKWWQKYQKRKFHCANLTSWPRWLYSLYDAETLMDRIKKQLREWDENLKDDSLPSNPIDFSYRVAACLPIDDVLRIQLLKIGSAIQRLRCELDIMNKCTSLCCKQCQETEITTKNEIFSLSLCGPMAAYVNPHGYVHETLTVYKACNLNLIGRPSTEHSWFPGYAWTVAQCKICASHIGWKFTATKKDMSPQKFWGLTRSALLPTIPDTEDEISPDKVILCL
Sequence of GSPT1 (Q16531 whole entry partner): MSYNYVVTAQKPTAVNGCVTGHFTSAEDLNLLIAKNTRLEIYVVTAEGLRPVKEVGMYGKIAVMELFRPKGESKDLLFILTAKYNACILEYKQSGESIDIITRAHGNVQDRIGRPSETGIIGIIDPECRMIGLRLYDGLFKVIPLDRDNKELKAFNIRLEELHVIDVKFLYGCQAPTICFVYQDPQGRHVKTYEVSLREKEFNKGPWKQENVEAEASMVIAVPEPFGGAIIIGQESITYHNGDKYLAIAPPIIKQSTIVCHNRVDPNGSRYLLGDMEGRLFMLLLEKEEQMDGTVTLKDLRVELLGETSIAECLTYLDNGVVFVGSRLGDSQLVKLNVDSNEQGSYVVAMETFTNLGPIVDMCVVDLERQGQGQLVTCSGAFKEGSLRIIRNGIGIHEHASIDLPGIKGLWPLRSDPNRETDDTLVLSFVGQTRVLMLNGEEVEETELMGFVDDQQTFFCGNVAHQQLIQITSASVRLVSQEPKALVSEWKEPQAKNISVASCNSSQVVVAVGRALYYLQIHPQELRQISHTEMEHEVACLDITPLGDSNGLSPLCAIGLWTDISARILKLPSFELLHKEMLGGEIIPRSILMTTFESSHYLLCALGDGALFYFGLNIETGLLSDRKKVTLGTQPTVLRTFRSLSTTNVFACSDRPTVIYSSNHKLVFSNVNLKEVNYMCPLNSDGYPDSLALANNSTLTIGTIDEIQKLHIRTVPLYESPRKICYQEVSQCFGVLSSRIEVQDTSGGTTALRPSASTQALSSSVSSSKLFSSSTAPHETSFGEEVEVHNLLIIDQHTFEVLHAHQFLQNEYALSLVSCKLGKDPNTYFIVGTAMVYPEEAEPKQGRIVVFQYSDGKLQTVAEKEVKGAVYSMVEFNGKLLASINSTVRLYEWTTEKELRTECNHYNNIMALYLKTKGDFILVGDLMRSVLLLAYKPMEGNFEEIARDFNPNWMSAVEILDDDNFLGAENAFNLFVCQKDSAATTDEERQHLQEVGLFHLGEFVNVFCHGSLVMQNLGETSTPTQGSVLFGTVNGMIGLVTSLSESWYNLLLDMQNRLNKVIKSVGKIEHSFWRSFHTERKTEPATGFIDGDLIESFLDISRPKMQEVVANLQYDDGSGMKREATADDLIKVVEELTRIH
T1 sequence (P48729 whole entry): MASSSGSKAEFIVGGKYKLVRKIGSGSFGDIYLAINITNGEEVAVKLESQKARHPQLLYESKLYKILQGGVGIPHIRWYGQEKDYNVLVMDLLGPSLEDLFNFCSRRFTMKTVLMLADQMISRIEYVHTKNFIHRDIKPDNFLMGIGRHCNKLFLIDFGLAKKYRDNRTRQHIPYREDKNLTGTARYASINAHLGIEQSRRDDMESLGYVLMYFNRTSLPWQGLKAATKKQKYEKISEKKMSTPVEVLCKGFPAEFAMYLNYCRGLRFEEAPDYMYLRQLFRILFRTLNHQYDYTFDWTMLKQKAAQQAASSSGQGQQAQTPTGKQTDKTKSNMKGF
T1 sequence (Q96SW2 whole entry): as the sequence (Q96SW2 whole entry) above
T1 sequence (Q16531 whole entry partner): as the sequence (Q16531 whole entry partner) above

SMILES	CK1α Ymin (CK1α; six hours incubation)	DC50 (CK1α; six hours incubation) [nM]	DC50 (GSPT1) [nM]	GSPT1 Ymin (GSPT1)	CK1α Ymin (CK1α; six hours)	DC50 (CK1α; six hours) [nM]
Cn1ncc(-c2ccc3c(c2)CN(C2CCC(=O)NC2=O)C3=O)c1-c1ccccc1 (stereo not drawn) [Example 1, 3-(5-(1-Methyl-5-phenyl-1H-pyrazol-4-yl)-1-oxoisoindolin-2-yl)piperidine-2,6-dione]	D (D = >10- 25% remaining)	< 25	≥ 25	F (F = >75-100% remaining)		
Cn1cnc(-c2ccc3c(c2)CN(C2CCC(=O)NC2=O)C3=O)c1-c1ccccc1 (stereo not drawn) [Example 2, 3-(5-(1-Methyl-5-phenyl-1H-imidazol-4-yl)-1-oxoisoindolin-2-yl)piperidine-2,6-dione]	C (C = 0-10% remaining)	< 25	< 25	E (E = >25-75% remaining)		
Cn1cc(-c2ccc3c(c2)CN(C2CCC(=O)NC2=O)C3=O)c(-c2ccccc2)n1 (stereo not drawn) [Example 3, 3-(5-(1-Methyl-3-phenyl-1H-pyrazol-4-yl)-1-oxoisoindolin-2-yl) piperidine-2,6-dione]	E (E = >25-75% remaining)	< 25	≥ 25	F (F = >75-100% remaining)		
O=C1CCC(N2Cc3cc(-c4cscc4-c4ccccc4)ccc3C2=O)C(=O)N1 (stereo not drawn) [Example 4, 3-(1-Oxo-5-(4-phenylthiophen-3-yl)isoindolin-2-yl)piperidine-2,6-dione]	E (E = >25-75% remaining)	≥ 25	≥ 25	F (F = >75-100% remaining)		
O=C1CCC(N2Cc3cc(-c4c[nH]nc4-c4ccccc4)ccc3C2=O)C(=O)N1 (stereo not drawn) [Example 5, 3-(1-Oxo-5-(3-phenyl-1H-pyrazol-4-yl)isoindolin-2-yl) piperidine-2,6-dione]	D (D = >10- 25% remaining)	< 25	≥ 25	F (F = >75-100% remaining)		
O=C1CCC(N2Cc3cc(-c4ccnn4-c4ccccc4)ccc3C2=O)C(=O)N1 (stereo not drawn) [Example 6, 3-(1-oxo-5-(1-phenyl-1H-pyrazol-5-yl)isoindolin-2-yl)piperidine-2,6-dione]	E (E = >25-75% remaining)	≥ 25	≥ 25	F (F = >75-100% remaining)		
Cn1ncc(-c2ccc3c(c2)CN(C2CCC(=O)NC2=O)C3=O)c1-c1ccc(F)cc1 (stereo not drawn) [Example 8, 3-(5-(5-(4-fluorophenyl)-1-methyl-1H-pyrazol-4-yl)-1-oxoisoindolin-2-yl)piperidine-2,6-dione]	E (E = >25-75% remaining)	< 25	≥ 25	F (F = >75-100% remaining)		
O=C1CCC(N2Cc3cc(-c4cnn(-c5ccccc5)c4)ccc3C2=O)C(=O)N1 (stereo not drawn) [Example 9, 3-(1-Oxo-5-(1-phenyl-1H-pyrazol-4-yl)isoindolin-2-yl)piperidine-2,6-dione]	E (E = >25-75% remaining)	≥ 25	≥ 25	E (E = >25-75% remaining)		
Cn1cnc(-c2ccc3c(c2)CN(C2CCC(=O)NC2=O)C3=O)c1-c1ccc(F)cc1 (stereo not drawn) [Example 10, 3-(5-(5-(4-Fluorophenyl)-1-methyl-1H-imidazol-4-yl)-1-oxoisoindolin-2-yl)piperidine-2,6-dione]	C (C = 0-10% remaining)	< 25	≥ 25	E (E = >25-75% remaining)		
Cc1[nH]nc(-c2ccc3c(c2)CN(C2CCC(=O)NC2=O)C3=O)c1-c1ccccc1 (stereo not drawn) [Example 11]	C (C = 0-10% remaining)	< 25	< 25	D (D = >10- 25% remaining)		
Cn1nc(-c2ccc3c(c2)CN(C2CCC(=O)NC2=O)C3=O)cc1-c1ccc(C(F)(F)F)cc1 (stereo not drawn) [Example 495, 3-(5-(1-methyl-5-(4-(trifluoromethyl)phenyl)-1H-pyrazol-3-yl)-1-oxoisoindolin-2-yl)piperidine-2,6-dione]					C (C = 0-10% remaining)	< 25
